Experimental data as given in US6936572B2, “Agrochemical formulation aid composition and uses thereof” (Adjuvants Plus Inc., priority 2000, dated 2005).
Where two headings read alike, the source gives them in different places.

Columns and labels:
Canada Thistle = assay: Field control of broad-spectrum weeds with glyphosate technical acid + formulation aid (Example 2); format: in vivo; settings: 21 DAT
Protocol: (§1) Prior to any preparation all spray-mixing and application equipment were cleaned thoroughly by observing cleaning directions provided on the agrochemical labeling and accompanying materials provided by the maker. Half of the required water was placed in a spray tank. A required amount of the formulation aid was added in the spray tank for the required rate of glyphosate application as indicated in Table 1. […] Mixing was continued and remainder of the water was added to the spray tank. Mixing was: continued for another 5-10 minutes. The ready to use herbicide and formulation aid mixture was applied by spraying at the required rate.
(§2) The formulation aid tested in this example contained about 21.5% by weight aromatic hydrocarbon distillate, about 3.1% by weight 2N-octanol, about 5.7% by weight oleyl-cetyl alcohol, about 3.1% by weight polyoxyethylene (8) nonylphenolethin, about 33.3% by weight polyoxyalkylated fatty alcohol, and about 33.3% by weight ethoxylated tallow amine blend.

Catnip = assay: as above; format: in vivo; settings: 21 DAT
Protocol: as §1, §2

Dandelions = assay: as above; format: in vivo; settings: 21 DAT
Protocol: as §1, §2

Lambsquarters [1] = assay: as above; format: in vivo; settings: 21 DAT
Protocol: as §1, §2

Pig Weed [2] = assay: as above; format: in vivo; settings: 21 DAT
Protocol: as §1, §2

Quackgrass = assay: as above; format: in vivo; settings: 21 DAT
Protocol: as §1, §2

Sow Thistle = assay: as above; format: in vivo; settings: 21 DAT
Protocol: as §1, §2

Annual grasses = assay: as above; format: in vivo, foxtails, annual bluegrass, crabgrass, witchgrass; settings: 21 DAT
Protocol: as §1, §2

[3] = system: various annual and perennial weeds; assay: Field weed control overall, glyphosate technical acid (Example 2); format: in vivo; settings: 21 DAT; different rates; 10 fields
Protocol: as §1, §2

Lambsquarters [4] = settings: 21 DAT, spray volume 200 l/ha
Protocol: (§3) The results shown in Table 3 were obtained by applying the mixture of dicamba technical acid (87%) and the formulation aid to two fields infected with various annual and perennial weeds (indicated in Table 3). The experiments were conducted between the period of September 1998 to August 2000.

Pig Weed [5] = settings: 21 DAT, spray volume 200 l/ha
Protocol: as §3

[6] = system: various annual and perennial weeds; settings: 21 DAT; spray volume of 200 l/ha; different rates; two fields
Protocol: as §3

[7] = glyphosate technical acid (95%) 0.24 Kg or l/ha + formulation aid 0.5 l/ha or + water
[8] = glyphosate technical acid (95%) 0.53 Kg or l/ha + formulation aid 0.5 l/ha or + water
[9] = glyphosate technical acid (95%) 0.94 Kg or l/ha + formulation aid 0.9 l/ha or + water
[10] = Dicamba 0.140 Kg/ha + formulation aid 1.0 L/ha or + water
[11] = Dicamba 0.280 Kg/ha + formulation aid 1.0 L/ha or + water

O=C(O)CNCP(=O)(O)O [Glyphosate + water, N-phosphonomethylglycine]
Control of Canada Thistle (Canada Thistle; [7]): 0%
Control of Canada Thistle (Canada Thistle; [8]): 0%
Control of Canada Thistle (Canada Thistle; [9]): 0%
Control of Catnip (Catnip; [7]): 0%
Control of Catnip (Catnip; [8]): 0%
Control of Catnip (Catnip; [9]): 0%
Control of Dandelions (Dandelions; [7]): 0%
Control of Dandelions (Dandelions; [8]): 0%
Control of Dandelions (Dandelions; [9]): 0%
Control of Lambsquarters (Lambsquarters [1]; [7]): 0%
Control of Lambsquarters (Lambsquarters [1]; [8]): 0%
Control of Lambsquarters (Lambsquarters [1]; [9]): 0%
Control of Pig Weed (Pig Weed [2]; [7]): 0%
Control of Pig Weed (Pig Weed [2]; [8]): 0%
Control of Pig Weed (Pig Weed [2]; [9]): 0%
Control of Quackgrass (Quackgrass; [7]): 0%
Control of Quackgrass (Quackgrass; [8]): 0%
Control of Quackgrass (Quackgrass; [9]): 0%
Control of Sow Thistle (Sow Thistle; [7]): 0%
Control of Sow Thistle (Sow Thistle; [8]): 0%
Control of Sow Thistle (Sow Thistle; [9]): 0%
Control of Annual grasses (Annual grasses; [7]): 0%
Control of Annual grasses (Annual grasses; [8]): 0%
Control of Annual grasses (Annual grasses; [9]): 0%
weed control (in words) [3]: No weed control

COc1c(Cl)ccc(Cl)c1C(=O)O [Dicamba + water, 3,6-dichloro-2-methoxybenozic acid]
Control of Lambsquarters (Lambsquarters [4]; [10]): 0%
Control of Lambsquarters (Lambsquarters [4]; [11]): 0%
Control of Pig Weed (Pig Weed [5]; [10]): 0%
Control of Pig Weed (Pig Weed [5]; [11]): 0%
weed control (in words) [6]: No weed control
